The source of these data is US6340670B1, “Acetal benzylmaltosides as inhibitors of smooth muscle cell proliferation” (American Home Products Corporation, priority 1998, dated 2002).

This test relates to Porcine Smooth Muscle Cell. Briefly: Effects of Compounds on Cell Proliferation Using 3H Thymidine Incorporation. The note with it: for IC50: serum/growth factor stimulated cells, 24-36 h incubation, read-out: Porcine Smooth Muscle Cell Antiproliferation IC50; for Porcine Smooth Muscle Cell Antiproliferation, percent inhibition: control (100%) = maximally stimulated cells. In kind it is cell-based. How it is done:
Effects of Compounds on Cell Proliferation Using ^3H Thymidine Incorporation
Human and porcine smooth muscle cells were tested in early passage (generally passage 3-7) at sub-confluent conditions. Cultures were grown in 16 mm (24 well) multi-well culture dishes in medium 199 supplemented with 10% fetal bovine serum and 2% antibiotic/antimycotic. At sub-confluence, the cells were placed in a defined serum free medium (AIM-V; Gibco) for 24-48 h prior to initiating the experimental protocol.
Compounds were added to each well at 50 fold dilution (20 μL/well) and the plates were incubated for 24-36 h at 37° C. in 5% CO2. Compounds were initially dissolved in 50% ethanol and serially diluted into media. Compounds were routinely evaluated at concentrations from 1 to 100 μM. As a control, grade II porcine intestinal mucosal heparin (sodium salt) was routinely evaluated in all cell preparations at concentrations from 0.1 to 100 μg/mL.
At the completion of the test procedure, plates were placed on ice, washed three times with ice cold phosphate buffered saline (PBS) and incubated in ice cold 10% trichloroacetic acid (TCA) got 30 min to remove acid soluble proteins. Solution was transferred to scintillation vials containing 0.4 N HCl (500 μL/vial to neutralize NaOH) and each well was rinsed two times with water (500 μL) for a total volume of 2 mL/vial.
Data was obtained, in triplicate, for both control and experimental samples. Control (100%) data was obtained from maximally stimulated cells, as the result of growth factor or serum stimulation. Experimental data was obtained from cells maximally stimulated with growth factor or serum and treated with compound. Data are expressed as an IC50 or percent inhibition in Table I below.
(Dividing cells build labelled thymidine or BrdU into new DNA.)

Molecules are shown by their SMILES.

Regarding `CC(=O)OC1C(OC2C(COC(=O)c3cccnc3)OC(OCc3ccc(Cl)c([N+](=O)[O-])c3)C(OC(C)=O)C2OC(C)=O)OC2COC(c3ccccc3)OC2C1OC(C)=O` [Example 33, (R)-(4-Chloro-3-nitrophenyl)methyl 4-[2,3-di-O-acetyl-4,6-O-(phenylmethylene)-α-D-glucopyranosyl]-β-D-glucopyranoside 2,3-diacetate 6-(3-pyridinecarboxylate)], the IC50 was determined as 312 nM. On the same count and under the same terms, the figure for `CC(=O)Nc1cc(COC2OC(CO)C(OC3OC4COC(Cc5ccccc5)OC4C(O)C3O)C(O)C2O)ccc1Cl` [Example 16, N-{5-[(4′,6′-O-((1R)-2-Phenyl-ethylidene)-β-D-maltosyloxy)-methyl]-2-chloro-phenyl}-acetamide] is 16300 nM.

As for `CC(=O)Nc1cc(COC2OC(CO)C(OC3OC4COC(C)OC4C(O)C3O)C(O)C2O)ccc1Cl` [Example 1, N-{2-Chloro-5-[(4′,6′-O-ethylidene)-β-D-maltosyloxymethyl]-phenyl}-acetamide], the “Porcine Smooth Muscle Cell Antiproliferation, percent inhibition” value (@ 100 μM) is recorded as 32% @ 100. As for `CC(=O)Nc1cc(COC2OC(COC(=O)c3ccccc3)C(OC3OC4COC(Cc5ccccc5)OC4C(O)C3O)C(O)C2O)ccc1Cl` [Example 17, N-{5-[(6-O-Benzoyl-4′,6′-O-((1R)-2-phenyl-ethylidene)-β-D-maltosyloxy)-methyl]-2-chloro-phenyl}-acetamide], the IC50 turned out to be 35 nM.

For `O=[N+]([O-])c1cc(CSC2OC(CO)C(OC3OC4COC(c5ccccc5)OC4C(O)C3O)C(O)C2O)ccc1Cl` (centres unmarked) [Example 86, 6-[-6-(4-Chloro-3-nitro-benzylsulfanyl)-4,5-dihydroxy-2-hydroxymethyl-tetrahydro-pyran-3-yloxy]-2-phenyl-hexahydro-pyrano[3,2-d][1.3]dioxine-7.8-diol], the IC50 is 16300 nM. On the same count and under the same terms, for `CC(=O)Nc1cc(COC2OC(COC(=O)c3ccccc3)C(OC3OC4COC(C(C)C)OC4C(O)C3O)C(O)C2O)ccc1Cl` [Example 15, N-{5-[(6-O-Benzoyl-4′,6′-O-isobutylidene-β-D-maltosyl)-oxy-methyl]-2-chloro-phenyl}-acetamide] the value was 3 nM; for `CC(=O)Nc1cc(COC2OC(COC(=O)c3ccccc3)C(OC3OC4COC(c5ccccc5)OC4C(O)C3O)C(O)C2O)ccc1C#N` [Example 84, N-{5-[(6-O-Benzoyl-4′,6′-O-benzylidene-β-D-maltosyl)-oxy-methyl]-2-cyano-phenyl}-acetamide], 250 nM. Consider `CC(=O)Nc1cc(CO[C@@H]2O[C@H](COC(=O)c3ccccc3)[C@@H](O[C@@H]3O[C@@H]4CO[C@@H](c5ccccc5)O[C@H]4[C@H](OC(C)=O)[C@H]3OC(C)=O)[C@H](OC(C)=O)[C@H]2OC(C)=O)ccc1Cl` [Example 27, (R)-N-[2-Chloro-5-[[[2,3-di-O-acetyl-6-O-benzoyl-4-O-[2,3-di-O-acetyl-4,6-O-(phenylmethylene)-β-D-glucopyranoysl]-β-D-glucopyranosyl]oxy]-methyl]-phenyl]acetamide], for which the IC50 is 70 nM. On to `C[C@H](N)C(=O)Nc1cc(CO[C@@H]2O[C@H](COC(=O)c3ccccc3)[C@@H](O[C@H]3O[C@@H]4COC(c5ccccc5)O[C@H]4[C@H](O)[C@H]3O)[C@H](O)[C@H]2O)ccc1Cl` (stereo partly drawn) [Example 77, N′-{5-[(6-O-benzoyl-4′,6′-O-benzylidene-β-D-maltosyl)-oxy-methyl]-2-chloro-phenyl}-L-alaninamide], for which the IC50 was 81 nM. Same read-out and setting: the figure for `CC(=O)Nc1cc(COC2OC(COS(=O)(=O)c3ccc(C)cc3)C(OC3OC4COC(c5ccccc5)OC4C(O)C3O)C(O)C2O)ccc1C` [Example 59, N-(5-{[4′,6′-O-Benzylidene-6-O-(4-toluenesulfonyl)-β-D-maltosyl]-oxy-methyl}-2-methyl-phenyl)-acetamide] is 490 nM.

For the compound `CS(=O)(=O)Nc1cc(COC2OC(CO)C(OC3OC4COC(c5ccccc5)OC4C(O)C3O)C(O)C2O)ccc1Cl` [Example 83, N-{5-[(4′,6′-O-Benzylidene-β-D-maltosyl)-oxy-methyl]-2-chloro-phenyl}-methanesulfonamide], the “Porcine Smooth Muscle Cell Antiproliferation, percent inhibition” value (@ 50 μM) is 18% @ 50.
